Results reported in US11905553B2, “Method for nucleic acid amplification” (ST. JUDE CHILDREN'S RESEARCH HOSPITAL, INC., priority 2018, dated 2024).
“Also recorded” adds a separate entry of the source.

Experiments:
[1] = tested on: Umbilical cord blood cells that express the stem/progenitor marker CD34; experiment: Direct measurement of environmental mutagenicity (DMEM): exposed single cells, PTA and single-cell sequencing; assay type: cell-based, human; details: for enrichment of variants in DNase I hypersensitive (DH) sites: ENU-exposed CD34+ cells vs Roadmap Epigenomics DH sites (FIG. 12D, 12E)
Description: PTA was used to conduct a novel mutagenicity assay that provides a framework for performing high-resolution, genome wide human toxicogenomics studies. Previous studies such as the Ames test, relies on bacterial genetics to make measurements that are assumed to be representative of human cells while only providing limited information on the mutation number and patterns induced in each exposed cell. To overcome these limitations, a human mutagenesis system “direct measurement of environmental mutagenicity (DMEM)” was developed, wherein single human cells was exposed to an environmental compound, isolated as single cells, and subjected to single-cell sequencing to identify the new mutations induced in each cell.
Umbilical cord blood cells that express the stem/progenitor marker CD34 were exposed to increasing concentrations of the direct mutagen N-ethyl-N-nitrosourea (ENU).
ENU (CAS 759-73-9) and D-mannitol (CAS 69-65-8) were put into solution at their maximal solubility. Fresh anticoagulant-treated umbilical cord blood (CB) was obtained from St. Louis Cord Blood Bank. CB was diluted 1:2 with PBS and mononuclear cells (MNCs) were isolated by density gradient centrifugation on Ficoll-Paque Plus according to manufacturer's instructions. CB MNCs expressing CD34 were then immunomagnetically selected using the human CD34 microbead kit and magnetic cell sorting (MACS) system as per the manufacturer. Cell count and viability were assessed using the Luna FL cell counter. CB CD34+ cells were seeded at a density of 2.5×10^4 cells/mL in StemSpan SFEM supplemented with 1×CD34+ Expansion supplement, 100 units/mL of penicillin, and 100 ug/mL of streptomycin where they expanded for 96 hours before proceeding to mutagen exposure.
Expanded cord blood CD34+ cells were cultured in StemSpan SFEM supplemented with 1×CD34+ Expansion Supplement, 100 units/mL of penicillin, and 100 ug/mL of streptomycin. The cells were exposed to ENU at concentrations of 8.54, 85.4, and 854 uM, D-mannitol at 1152.8, and 11528 uM, or 0.9% sodium chloride (vehicle control) for 40 hours. Single-cell suspensions from drug-treated cells and vehicle control samples were harvested and stained for viability as described above. Single cell sorts were carried out as described above. PTA was performed and libraries were prepared using a simplified and improved protocol as per the general methods of the methods described herein, and Example 2.
Data acquired from cells in the DMEM experiments were trimmed using Trimmomatic, aligned to GRCh38 using BWA, and further processed using GATK 4.0.1 best practices without deviation from the recommended parameters. Genotyping was performed using HaplotypeCaller where joint genotypes were again filtered using standard parameters. […] The trinucleotide context of each SNV was determined by extracting the surrounding bases from the reference genome using bedtools. Mutation counts and context were visualized using ggplot2 and heatmap2 in R.
To determine whether mutations were enriched in DNase I hypersensitivity sites (DHS) in CD34+ cells, the proportion of SNVs in each sample that overlap with DHS sites from 10 CD34+ primary cell datasets produced by the Roadmap Epigenomics Project were calculated. DHS sites were extended by 2 nucleosomes, or 340 bases in either direction. Each DHS dataset was paired with a single cell sample where we determined the proportion of the human genome with at least 10× coverage in that cell which overlapped with a DHS, which was compared to the proportion of SNVs that were found within the covered DHS sites.

[2] = tested on: mice; details: limited sequencing of target genes; cited from earlier work
[3] = tested on: leukemia cells; clone harboring an activating KRAS mutation; experiment: Leukemia cells in culture exposed to increasing concentrations of standard ALL chemotherapy drugs, bulk sequencing of clones; assay type: cell-based, human; details: for sensitivity of the clone harboring an activating KRAS mutation: pediatric ALL sample in culture, bulk sequencing (FIG. 7)
Description: Single-cell exome sequencing of individual leukemia cells harboring an ETV6-RUNX1 translocation has been performed, measuring approximately 200 coding mutations per cell, only 25 of which have been present in enough cells to be detected with standard bulk sequencing in that patient. The mutation load per cell has then been incorporated with other known features of this type of leukemia, such as the replication-associated mutation rate (1 coding mutation/300 cell divisions), the time from initiation to diagnosis (4.2 years), and the population size at the time of diagnosis (100 billion cells) to create an in silico simulation of the development of the disease. It has been unexpectedly discovered that even in what has been thought to be a genetically simple cancer such as pediatric ALL, there are an estimated 330 million clones with distinct coding mutation profiles at the time of diagnosis in that patient. […] Accordingly, methods are provided for enhancing the sensitivity of detection so that clones that make up at least 0.01% (1:10,000) of the cells (box B) can be detected, as this is the stratum in which most resistant disease that causes relapse is hypothesized to reside.
Given such a massive population genetic diversity, it has been hypothesized that there are clones that are more resistant to treatment within a given patient. To test that hypothesis, the sample is placed in culture and the leukemia cells are exposed to increasing concentrations of standard ALL chemotherapy drugs. […] This approach also employed bulk sequencing of the treated samples. The use of single-cell DNA sequencing in some instances allows a determination of the diversity and clonotypes of the expanding populations.

CCN(N=O)C(N)=O [ENU, N-ethyl-N-nitrosourea]
mutation number of each cell ([1]; ENU 8.54, 85.4 and 854 uM, 40 hours, cord blood CD34+ cells (FIG. 12A)): dose-dependent increase in mutation number of each cell
type of base changes induced ([1]; ENU-exposed CD34+ cells (FIG. 12B)): the most common mutations are T to A (A to T), T to C (A to G), and C to T (G to A); also recorded: C to G (G to C) transversion appears to be rare
trinucleotide context of the SNVs ([1]; ENU-exposed CD34+ cells (FIG. 12C)): cytosine mutagenesis appears to be rare when cytosine is followed by guanine; also recorded: most thymine variants occur where adenine is present before thymine
genomic feature annotation of the variants relative to the genome ([1]; ENU-exposed CD34+ cells (FIG. 12F)): not significantly different; also recorded: No specific enrichment was seen in specific annotations
enrichment of variants in DNase I hypersensitive (DH) sites [1]: no enrichment of cytosine variants in DNase I hypersensitivity sites was observed; also recorded: No significant enrichment in variant locations at DH sites was identified
enrichment of variants in DNase I hypersensitive (DH) sites ([1]; listed as N-ethyl-N-nitrosourea): No significant enrichment of cytosine variants was observed
preference of base changes [2]: preference for T to A (A to T), T to C (A to G), and C to T (G to A) changes

COc1cccc2c1C(=O)c1c(O)c3c(c(O)c1C2=O)C[C@@](O)(C(C)=O)C[C@@H]3O[C@H]1C[C@H](N)[C@H](O)[C@H](C)O1 [daunorubicin]
sensitivity of the clone harboring an activating KRAS mutation [3]: more sensitive; also recorded: killed

C[C@]12C=CC(=O)C=C1CC[C@@H]1[C@@H]2[C@@H](O)C[C@@]2(C)[C@H]1CC[C@]2(O)C(=O)CO [prednisolone]
sensitivity of the clone harboring an activating KRAS mutation [3]: more sensitive; also recorded: killed

asparaginase
behaviour of the clone harboring an activating KRAS mutation ([3]; lowest dose of asparaginase, pediatric ALL sample in culture (FIG. 7)): continued to expand
